Experimental data from ChEMBL document CHEMBL5634120, “Natural phytoalexins inspired the discovery of new biphenyls as potent antifungal agents for treatment of invasive fungal infections” (Eur J Med Chem, 2023).
Converted amounts (≈) assume the structure as drawn. The source made the active and inactive calls. The calls are words filed in the database; no cut-off is given here.

Assays:
[1] = tested on: Candida albicans; test: Antifungal activity against Candida albicans ATCC10231 assessed as inhibition of fungal growth incubated for 72 hrs by broth microdilution method; assay type: functional
[2] = tested on: Candida tropicalis; test: Antifungal activity against Candida tropicalis ATCC1369 assessed as inhibition of fungal growth incubated for 72 hrs by broth microdilution method; assay type: functional
[3] = tested on: Cryptococcus neoformans; test: Antifungal activity against Cryptococcus neoformans ATCC32045 assessed as inhibition of fungal growth incubated for 72 hrs by broth microdilution method; assay type: functional
[4] = tested on: Aspergillus fumigatus; test: Antifungal activity against Aspergillus fumigatus AS3.3913 assessed as inhibition of fungal growth incubated for 72 hrs by broth microdilution method; assay type: functional
[5] = tested on: Cryptococcus neoformans; test: Selectivity ratio of MFC for Cryptococcus neoformans ATCC32045 to MIC for Cryptococcus neoformans ATCC32045; assay type: functional
[6] = tested on: Cryptococcus neoformans; test: Fungicidal activity against Cryptococcus neoformans ATCC32045 incubated for 72 hrs; assay type: functional
[7] = tested on: Cryptococcus neoformans; test: Fungicidal activity against Cryptococcus neoformans ATCC32045 assessed as reduction in viable colony count incubated for 12 hrs by time kill assay; assay type: functional, organism-based
[8] = tested on: Cryptococcus neoformans; test: Fungicidal activity against Cryptococcus neoformans ATCC32045 assessed as reduction in viable colony counts at 0.5 to 1 ug/ml observed within 4 hrs by time kill assay (reference value: 6 log10CFU/ml); assay type: functional; details: dose 0.5-1 µg/ml
[9] = tested on: Cell membrane; test: Disruption of membrane integrity in Cryptococcus neoformans ATCC32045 assessed as red fluorescence at 2 ug/ml incubated for 4 hrs by PI staining based fluorescence microscopic analysis; assay type: subcellular; details: dose 2.0 µg/ml
[10] = tested on: Cell membrane; test: Disruption of membrane integrity in Cryptococcus neoformans ATCC32045 assessed as blue fluorescence at 2 ug/ml incubated for 4 hrs by DAPI staining based fluorescence microscopic analysis; assay type: subcellular; details: dose 2.0 µg/ml
[11] = Cytotoxicity against HUVEC cells assessed as inhibition of cell viability incubated for 24 hrs by CCK-8 assay; assay type: toxicity, cell-based; details: human
[12] = Selectivity index, ratio of CC50 for HUVEC cells to MIC for antifungal activity against Cryptococcus neoformans ATCC32045; assay type: toxicity; details: human, read-out: Selectivity Index
[13] = tested on: Cryptococcus neoformans; test: Antibiofilm activity against Cryptococcus neoformans ATCC32045 assessed as inhibition of biofilm formation incubated for 24 hrs by XTT reduction assay; assay type: functional, organism-based; details: dose 0.125-8 µg/ml
[14] = tested on: Cryptococcus neoformans; test: Antibiofilm activity against Cryptococcus neoformans ATCC32045 assessed as inhibition of biofilm formation at >=4 ug/ml incubated for 24 hrs by XTT reduction assay relative to control; assay type: functional; details: dose >= 4 µg/ml
[15] = tested on: Cryptococcus neoformans; test: Disruption of 24 hrs preformed biofilm in Cryptococcus neoformans ATCC32045 incubated for 24 hrs by XTT reduction assay; assay type: functional, organism-based; details: dose 0.125-8 µg/ml
[16] = tested on: Cryptococcus neoformans; test: Antibiofilm activity against Cryptococcus neoformans ATCC32045 assessed as reduction in 24 hrs preformed biofilm at 1 ug/ml incubated for 24 hrs by XTT reduction assay relative to control; assay type: functional; parameters: scale not given: the % may be the effect or the level left; details: dose 1 µg/ml
[17] = tested on: Cryptococcus neoformans; test: Antifungal activity against Cryptococcus neoformans ATCC32045 assessed as inhibition of melanin production at 8 ug/ml; assay type: functional, organism-based; details: dose 8.0 µg/ml
[18] = tested on: Cryptococcus neoformans; test: Antifungal activity against Cryptococcus neoformans ATCC32045 assessed as inhibition of urease production at 2 ug/ml; assay type: functional, organism-based; details: dose 2.0 µg/ml
[19] = tested on: Cell membrane; test: Disruption of cell membrane in Cryptococcus neoformans ATCC32045 assessed as cell shrinkage at 2 ug/ml incubated for 12 hrs by scanning electron microscopy analysis; assay type: subcellular; details: dose 2.0 µg/ml
[20] = tested on: Cell membrane; test: Disruption of cell membrane in Cryptococcus neoformans ATCC32045 assessed as cell wrinkling at 2 ug/ml incubated for 12 hrs by scanning electron microscopy analysis; assay type: subcellular; details: dose 2.0 µg/ml
[21] = tested on: Cell membrane; test: Disruption of cell membrane in Cryptococcus neoformans ATCC32045 assessed as cell disintegration at 2 ug/ml incubated for 12 hrs by scanning electron microscopy analysis; assay type: subcellular; details: dose 2.0 µg/ml

Row | Structure (SMILES) | MIC [1] [µg/mL] | MIC [2] [µg/mL] | MIC [3] [µg/mL] | MIC [4] [µg/mL] | also measured
1 | CCCCC(=O)c1ccc(-c2cc(O)c(O)c(OC)c2)cc1 | 512 (≈ 1700 µM) | 512 (≈ 1700 µM) | 512 (≈ 1700 µM) | 512 (≈ 1700 µM) | –
2 | CCc1ccccc1-c1cc(O)c(O)c(OC)c1 | 256 (≈ 1050 µM) | 128 (≈ 524 µM) | 64 (≈ 262 µM) | 128 (≈ 524 µM) | –
3 | COc1cc(-c2ccccc2)cc(OCc2ccccc2)c1OCc1ccccc1 | > 512 | > 512 | > 512 | > 512 | –
4 | CCCc1ccc(-c2ccc(-c3cc(O)c(O)c(OC)c3)cc2)cc1 | 512 (≈ 1530 µM) | 64 (≈ 191 µM) | 4 (≈ 12 µM) | > 512 | –
5 | COc1cc(-c2ccc(C3CCCCC3)cc2)cc(O)c1O | 512 (≈ 1720 µM) | 512 (≈ 1720 µM) | 2 (≈ 6.7 µM) | > 512 | –
6 | COc1cc(-c2ccccc2)cc2c1OCO2 | > 512 | > 512 | > 512 | 512 (≈ 2240 µM) | –
7 | COc1cc(-c2ccccc2)cc(OC(C)=O)c1OC(C)=O | > 512 | > 512 | > 512 | > 512 | –
8 | COc1cc(-c2ccccc2)cc(OC)c1O [AUCUPARIN] | > 512 | > 512 | 64 (≈ 278 µM) | > 512 | –
9 | COc1cc(-c2ccc(O)cc2)cc(O)c1O | > 512 | > 512 | > 512 | > 512 | –
10 | CCCCCCCc1ccc(-c2cc(O)c(O)c(OC)c2)cc1 | 512 (≈ 1630 µM) | 512 (≈ 1630 µM) | 2 (≈ 6.36 µM) | > 512 | –
11 | COc1cc(-c2ccc(CCC#N)cc2)cc(O)c1O | 512 (≈ 1900 µM) | 512 (≈ 1900 µM) | 512 (≈ 1900 µM) | 512 (≈ 1900 µM) | –
12 | COc1cc(-c2ccccc2)cc(OC(=O)C2CCCCC2)c1OC(=O)C1CCCCC1 | > 512 | > 512 | > 512 | > 512 | –
13 | CCCCCCc1ccc(-c2cc(O)c(O)c(OC)c2)cc1 | 512 (≈ 1700 µM) | 4 (≈ 13.3 µM) | 1 (≈ 3.33 µM) | > 512 | –
14 | C=CCOc1cc(-c2ccccc2)cc(OC)c1OCC=C | > 512 | > 512 | > 512 | > 512 | –
15 | COc1cc(-c2cc(C(C)(C)C)cc(C(C)(C)C)c2)cc(O)c1O | > 512 | > 512 | > 512 | 128 (≈ 390 µM) | –
16 | C[C@@H]1[C@H](O)[C@@H](C)/C=C/C=C/C=C/C=C/C=C/C=C/C=C/[C@H](O[C@@H]2O[C@H](C)[C@@H](O)[C@H](N)[C@@H]2O)C[C@@H]2O[C@](O)(C[C@@H](O)C[C@@H](O)[C@H](O)CC[C@@H](O)C[C@@H](O)CC(=O)O[C@H]1C)C[C@H](O)[C@H]2C(=O)O [AMPHOTERICIN B] | 0.5 (≈ 0.541 µM) | 0.5 (≈ 0.541 µM) | 0.25 (≈ 0.271 µM) | 2 (≈ 2.16 µM) | MFC [6]: 2 µg/mL (≈ 2.16 µM); Activity [7]: Dose-Dependent Effect; Activity [8]: 4 log10CFU/ml; Activity [9]: Active; Activity [10]: Active; CC50 at 24 h [11]: 4.12 µg/mL (≈ 4.46 µM); Selectivity ratio [12]: 16
17 | COc1cc(-c2ccccc2F)cc(O)c1O | 128 (≈ 546 µM) | 128 (≈ 546 µM) | 128 (≈ 546 µM) | 64 (≈ 273 µM) | –
18 | CCCCCCc1cccc(-c2cc(O)c(O)c(OC)c2)c1 | > 512 | 8 (≈ 26.6 µM) | 2 (≈ 6.66 µM) | 512 (≈ 1700 µM) | –
19 | COc1cc(-c2ccccc2)cc(O)c1O | 128 (≈ 592 µM) | 128 (≈ 592 µM) | 64 (≈ 296 µM) | 128 (≈ 592 µM) | –
20 | Oc1cc(-c2ccccc2)cc(O)c1O | > 512 | > 512 | 256 (≈ 1270 µM) | > 512 | –
21 | COc1cc(-c2ccccc2)cc(OC(=O)c2ccc(C)cc2)c1OC(=O)c1ccc(C)cc1 | > 512 | > 512 | > 512 | > 512 | –
22 | CCCCCCCCc1ccc(-c2cc(O)c(O)c(OC)c2)cc1 | > 512 | > 512 | 4 (≈ 12.2 µM) | > 512 | –

Further lines, with some results ahead:

Row | MIC [1] [µg/mL] | MIC [2] [µg/mL] | MIC [3] [µg/mL] | MIC [4] [µg/mL] | Structure (SMILES) | also measured
23 | 4 (≈ 16.5 µM) | 4 (≈ 16.5 µM) | 0.5 (≈ 2.06 µM) | 16 (≈ 66 µM) | CCCCc1ccc(-c2ccc(O)c(O)c2)cc1 | –
24 | 128 (≈ 524 µM) | 128 (≈ 524 µM) | 32 (≈ 131 µM) | 128 (≈ 524 µM) | CCc1cccc(-c2cc(O)c(O)c(OC)c2)c1 | –
25 | 16 (≈ 58.7 µM) | 16 (≈ 58.7 µM) | 4 (≈ 14.7 µM) | 64 (≈ 235 µM) | COc1cc(-c2ccc(C(C)(C)C)cc2)cc(O)c1O | –
26 | 32 (≈ 125 µM) | 32 (≈ 125 µM) | 8 (≈ 31.2 µM) | 32 (≈ 125 µM) | CCCCCc1ccc(-c2c(O)cccc2O)cc1 | –
27 | 16 (≈ 62.4 µM) | 16 (≈ 62.4 µM) | 2 (≈ 7.8 µM) | 64 (≈ 250 µM) | CCCCCc1ccc(-c2cc(O)ccc2O)cc1 | –
28 | 8 (≈ 27.9 µM) | 2 (≈ 6.98 µM) | 2 (≈ 6.98 µM) | 512 (≈ 1790 µM) | CCCCCc1ccc(-c2cc(O)c(O)c(OC)c2)cc1 | –
29 | 4 (≈ 15.6 µM) | 2 (≈ 7.8 µM) | 0.25 (≈ 0.975 µM) | 16 (≈ 62.4 µM) | CCCCCc1ccc(-c2ccc(O)c(O)c2)cc1 | Selectivity ratio [5]: 2; MFC [6]: 0.5 µg/mL (≈ 1.95 µM)
30 | 4 (≈ 15.6 µM) | 2 (≈ 7.8 µM) | 1 (≈ 3.9 µM) | 16 (≈ 62.4 µM) | CCCCCc1ccc(-c2cccc(O)c2O)cc1 | –
31 | 16 (≈ 58.7 µM) | 4 (≈ 14.7 µM) | 2 (≈ 7.34 µM) | 32 (≈ 117 µM) | CCCCc1ccc(-c2cc(O)c(O)c(OC)c2)cc1 | –
32 | 2 (≈ 7.8 µM) | 2 (≈ 7.8 µM) | 0.5 (≈ 1.95 µM) | 8 (≈ 31.2 µM) | CCCCCc1ccc(-c2ccc(O)cc2O)cc1 | Selectivity ratio [5]: 1; MFC [6]: 0.5 µg/mL (≈ 1.95 µM)
33 | 2 (≈ 7.8 µM) | 1 (≈ 3.9 µM) | 0.25 (≈ 0.975 µM) | 8 (≈ 31.2 µM) | CCCCCc1ccc(-c2cc(O)cc(O)c2)cc1 | Selectivity ratio [5]: 4; MFC [6]: 1 µg/mL (≈ 3.9 µM); Activity [7]: Dose-Dependent Effect; Activity [8]: 4 log10CFU/ml; Activity [9]: Active; Activity [10]: Active; Activity [13]: Dose-Dependent Effect; inhibition (INH) [14]: ~100%; Activity [15]: Dose-Dependent Effect; Activity [16]: ~71.6%; Activity [17]: Active; Activity [18]: Active; Activity [19]: Active; Activity [20]: Active; Activity [21]: Active; CC50 at 24 h [11]: 19.4 µg/mL (≈ 75.7 µM)
34 | 16 (≈ 61.9 µM) | 8 (≈ 31 µM) | 4 (≈ 15.5 µM) | 64 (≈ 248 µM) | CCCc1ccc(-c2cc(O)c(O)c(OC)c2)cc1 | –
35 | 32 (≈ 99 µM) | 32 (≈ 99 µM) | 8 (≈ 24.8 µM) | 128 (≈ 396 µM) | COc1cc(-c2ccc(CCBr)cc2)cc(O)c1O | –
36 | 32 (≈ 131 µM) | 32 (≈ 131 µM) | 8 (≈ 32.7 µM) | 64 (≈ 262 µM) | CCc1ccc(-c2cc(O)c(O)c(OC)c2)cc1 | –
37 | 8 (≈ 29.4 µM) | 4 (≈ 14.7 µM) | 2 (≈ 7.34 µM) | 32 (≈ 117 µM) | CCCCCc1ccc(-c2cc(O)c(O)c(O)c2)cc1 | –
38 | 16 (≈ 61.9 µM) | 16 (≈ 61.9 µM) | 8 (≈ 31 µM) | 64 (≈ 248 µM) | COc1cc(-c2ccc(C(C)C)cc2)cc(O)c1O | –
39 | 64 (≈ 235 µM) | 16 (≈ 58.7 µM) | 8 (≈ 29.4 µM) | 32 (≈ 117 µM) | CCc1cc(CC)cc(-c2cc(O)c(O)c(OC)c2)c1 | –
40 | 8 (≈ 29.4 µM) | 4 (≈ 14.7 µM) | 4 (≈ 14.7 µM) | 32 (≈ 117 µM) | CCCCCc1ccc(-c2ccc(O)c(O)c2O)cc1 | –
